Results taken from PMC11879040, “Advancing systemic toxicity risk assessment: Evaluation of a NAM-based toolbox approach” (Toxicological Sciences, 2024).

Columns and labels:
HepG2 cells [1] = assay: Cell stress panel (CSP), 24 h, 8 concentrations, BIFROST global PoD; assay type: cell-based; details: for pod_cell_stress PoD: HepG2, cell stress panel PoD
Procedure: Compounds were tested using the previously developed cell stress panel ([Hatherell et al. 2020]) and the expanded biomarker panel outlined in Middleton et al. HepG2 cells were treated with all compounds for 24 h across 8 concentrations prior to biomarker analysis. The same plate layout and number of replicates (3 biological and 2 technical) were used as previously for each assay within the panel.

Tubulin (r) = assay: IPP Tubulin binding; design: species or system rat; details: 10 uM; ligand/control Colchicine
[2] = Assignment of risk classifications to benchmark chemical-exposure scenarios; details: for risk: from table S1
[3] = tested on: Potassium Voltage-Gated Channel Kv non-selective, KCNQ1 (r); assay: IPP KCNQ1 binding (antagonist radioligand); design: species or system rat; details: IPP screening at 10 uM; control α-dendrotoxin
[4] = cited from earlier work
[5] = tested on: Thyroid hormone receptor alpha, THRA (h); assay: IPP THRA coactivator recruitment (agonist); assay type: biochemical, human; details: 10 uM; agonist; T3
rat = details: rat, cited from earlier work
[6] = PBK level L2; single value or median; ref [2],[4],[6],[7],[8],[10],[11],[15],[18],[27],[34]; cited from earlier work
[7] = target: Potassium voltage-gated channel subfamily H member 2 hERG, KCNH2 (h) (Homo sapiens, UniProt Q12809); details: 10 uM; [3H] Dofetilide; control Terfenadine
Potassium voltage-gated channel subfamily H member 2 hERG, KCNH2 (h), sequence (Q12809 whole entry): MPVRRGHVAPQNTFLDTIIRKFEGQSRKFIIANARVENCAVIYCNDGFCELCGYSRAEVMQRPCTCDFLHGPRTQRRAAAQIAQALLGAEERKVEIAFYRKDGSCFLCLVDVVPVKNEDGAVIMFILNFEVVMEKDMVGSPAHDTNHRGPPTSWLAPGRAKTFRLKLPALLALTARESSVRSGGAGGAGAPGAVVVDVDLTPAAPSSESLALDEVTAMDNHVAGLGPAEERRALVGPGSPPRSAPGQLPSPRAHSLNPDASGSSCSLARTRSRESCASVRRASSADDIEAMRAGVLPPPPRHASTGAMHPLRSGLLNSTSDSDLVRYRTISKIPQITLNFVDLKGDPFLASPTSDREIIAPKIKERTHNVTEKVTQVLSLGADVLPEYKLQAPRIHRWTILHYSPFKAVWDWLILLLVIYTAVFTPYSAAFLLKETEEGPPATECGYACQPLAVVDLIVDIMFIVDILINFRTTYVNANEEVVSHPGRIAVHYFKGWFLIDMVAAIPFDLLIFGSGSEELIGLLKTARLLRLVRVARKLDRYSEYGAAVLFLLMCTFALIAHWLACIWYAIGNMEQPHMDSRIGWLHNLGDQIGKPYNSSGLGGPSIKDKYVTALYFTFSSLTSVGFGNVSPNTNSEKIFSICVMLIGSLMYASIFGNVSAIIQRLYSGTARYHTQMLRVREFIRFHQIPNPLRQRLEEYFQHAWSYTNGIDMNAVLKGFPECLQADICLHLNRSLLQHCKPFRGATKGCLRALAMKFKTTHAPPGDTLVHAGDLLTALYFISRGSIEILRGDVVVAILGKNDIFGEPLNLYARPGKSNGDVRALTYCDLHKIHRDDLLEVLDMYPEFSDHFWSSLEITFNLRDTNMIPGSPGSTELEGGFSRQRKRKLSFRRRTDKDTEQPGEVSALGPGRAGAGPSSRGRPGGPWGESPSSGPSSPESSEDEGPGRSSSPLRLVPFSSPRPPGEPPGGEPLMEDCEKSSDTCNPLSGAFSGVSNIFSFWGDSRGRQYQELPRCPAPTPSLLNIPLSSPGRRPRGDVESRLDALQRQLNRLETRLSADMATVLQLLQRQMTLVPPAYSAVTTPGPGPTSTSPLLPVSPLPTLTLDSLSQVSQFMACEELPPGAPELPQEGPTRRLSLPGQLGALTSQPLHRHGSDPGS

[8] = target: T1, Adenosine receptor A2a, ADORA2A (h) (Homo sapiens, UniProt P29274); assay: IPP ADORA2A binding (agonist radioligand); details: IPP screening at 10 uM; control NECA
T1 construct: purchased Eurofins Cerep (SafetyScreen44-based IPP panel)
T1 sequence (P29274 whole entry): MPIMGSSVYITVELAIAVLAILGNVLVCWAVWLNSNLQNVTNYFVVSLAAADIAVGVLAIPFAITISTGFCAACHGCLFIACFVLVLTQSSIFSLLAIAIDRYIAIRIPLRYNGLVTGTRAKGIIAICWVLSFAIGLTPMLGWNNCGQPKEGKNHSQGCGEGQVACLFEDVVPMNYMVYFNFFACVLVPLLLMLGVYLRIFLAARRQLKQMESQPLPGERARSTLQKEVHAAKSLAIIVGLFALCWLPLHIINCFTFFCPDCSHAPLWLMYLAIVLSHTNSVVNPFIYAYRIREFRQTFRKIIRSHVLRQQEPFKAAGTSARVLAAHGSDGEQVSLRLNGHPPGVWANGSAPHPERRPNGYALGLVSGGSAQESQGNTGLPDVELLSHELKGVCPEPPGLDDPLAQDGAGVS

[9] = tested on: Sodium channel protein type 5 subunit alpha (site 2), SCN5A (r); assay type: binding, rat; details: IPP screening at 10 uM; control veratridine
[10] = tested on: Glutamate receptor ionotropic NMDA 1 non-selective, GRIN1 (r); details: IPP screening at 10 uM; control CGS 19755
[11] = PBK level L2; taken or scaled from references (median where several); ref [6],[7],[10],[19]; cited from earlier work
[12] = target: T2, Pregnane X receptor PXR, NR1I2 (h) (Homo sapiens, UniProt O75469); assay: IPP PXR coactivator recruitment (agonist); details: 10 uM, T0901317 for control
T2 sequence (O75469 1-434): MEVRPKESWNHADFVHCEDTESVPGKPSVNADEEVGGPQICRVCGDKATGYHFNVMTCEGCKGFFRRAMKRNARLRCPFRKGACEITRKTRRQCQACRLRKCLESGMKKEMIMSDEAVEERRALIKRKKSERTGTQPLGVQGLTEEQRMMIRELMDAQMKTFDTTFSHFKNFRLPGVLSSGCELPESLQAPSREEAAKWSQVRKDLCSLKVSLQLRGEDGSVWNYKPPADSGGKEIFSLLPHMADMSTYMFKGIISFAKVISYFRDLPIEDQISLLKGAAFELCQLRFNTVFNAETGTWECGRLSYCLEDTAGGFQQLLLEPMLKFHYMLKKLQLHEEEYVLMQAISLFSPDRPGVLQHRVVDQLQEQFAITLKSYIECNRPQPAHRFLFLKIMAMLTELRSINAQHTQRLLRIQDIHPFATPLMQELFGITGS

[13] = target: T2, Pregnane X receptor PXR, NR1I2 (h); assay: IPP PXR coactivator recruitment (antagonist); details: 10 uM, ligand T0901317
[14] = tested on: Gamma-aminobutyric acid receptor subunit alpha-1 BZD site, GABRA1A (r); assay type: binding, rat; details: IPP screening at 10 uM; control diazepam
MCF7 cells = assay: High-throughput transcriptomics (HTTr, TempO-Seq), MCF7, 24 h; assay type: cell-based, human; details: MCF-7
Procedure: (§1) HepG2, HepaRG, and MCF7 cells were treated with each compound for 24 h across a dose range of 7 concentrations and lysed using TempO-Seq lysis buffer (BioSpyder Technologies, proprietary kit, see [Middleton et al. 2022] for method details). Sequencing was performed using TempO-Seq (BioClavis) version 2 of the human whole transcriptome panel and analyzed as described previously in Middleton et al.

[15] = PBK level L2; at the given pH; single value or median; ref [1],[4],[5],[10],[11],[17],[26]; cited from earlier work
[16] = target: Voltage-dependent L-type Ca2+ channel (dihydropyridine site), CACNA1C (r) (Rattus norvegicus, UniProt P22002); assay type: binding; details: IPP screening at 10 uM; control nitrendipine
Voltage-dependent L-type Ca2+ channel (dihydropyridine site), CACNA1C (r), sequence (P22002 whole entry): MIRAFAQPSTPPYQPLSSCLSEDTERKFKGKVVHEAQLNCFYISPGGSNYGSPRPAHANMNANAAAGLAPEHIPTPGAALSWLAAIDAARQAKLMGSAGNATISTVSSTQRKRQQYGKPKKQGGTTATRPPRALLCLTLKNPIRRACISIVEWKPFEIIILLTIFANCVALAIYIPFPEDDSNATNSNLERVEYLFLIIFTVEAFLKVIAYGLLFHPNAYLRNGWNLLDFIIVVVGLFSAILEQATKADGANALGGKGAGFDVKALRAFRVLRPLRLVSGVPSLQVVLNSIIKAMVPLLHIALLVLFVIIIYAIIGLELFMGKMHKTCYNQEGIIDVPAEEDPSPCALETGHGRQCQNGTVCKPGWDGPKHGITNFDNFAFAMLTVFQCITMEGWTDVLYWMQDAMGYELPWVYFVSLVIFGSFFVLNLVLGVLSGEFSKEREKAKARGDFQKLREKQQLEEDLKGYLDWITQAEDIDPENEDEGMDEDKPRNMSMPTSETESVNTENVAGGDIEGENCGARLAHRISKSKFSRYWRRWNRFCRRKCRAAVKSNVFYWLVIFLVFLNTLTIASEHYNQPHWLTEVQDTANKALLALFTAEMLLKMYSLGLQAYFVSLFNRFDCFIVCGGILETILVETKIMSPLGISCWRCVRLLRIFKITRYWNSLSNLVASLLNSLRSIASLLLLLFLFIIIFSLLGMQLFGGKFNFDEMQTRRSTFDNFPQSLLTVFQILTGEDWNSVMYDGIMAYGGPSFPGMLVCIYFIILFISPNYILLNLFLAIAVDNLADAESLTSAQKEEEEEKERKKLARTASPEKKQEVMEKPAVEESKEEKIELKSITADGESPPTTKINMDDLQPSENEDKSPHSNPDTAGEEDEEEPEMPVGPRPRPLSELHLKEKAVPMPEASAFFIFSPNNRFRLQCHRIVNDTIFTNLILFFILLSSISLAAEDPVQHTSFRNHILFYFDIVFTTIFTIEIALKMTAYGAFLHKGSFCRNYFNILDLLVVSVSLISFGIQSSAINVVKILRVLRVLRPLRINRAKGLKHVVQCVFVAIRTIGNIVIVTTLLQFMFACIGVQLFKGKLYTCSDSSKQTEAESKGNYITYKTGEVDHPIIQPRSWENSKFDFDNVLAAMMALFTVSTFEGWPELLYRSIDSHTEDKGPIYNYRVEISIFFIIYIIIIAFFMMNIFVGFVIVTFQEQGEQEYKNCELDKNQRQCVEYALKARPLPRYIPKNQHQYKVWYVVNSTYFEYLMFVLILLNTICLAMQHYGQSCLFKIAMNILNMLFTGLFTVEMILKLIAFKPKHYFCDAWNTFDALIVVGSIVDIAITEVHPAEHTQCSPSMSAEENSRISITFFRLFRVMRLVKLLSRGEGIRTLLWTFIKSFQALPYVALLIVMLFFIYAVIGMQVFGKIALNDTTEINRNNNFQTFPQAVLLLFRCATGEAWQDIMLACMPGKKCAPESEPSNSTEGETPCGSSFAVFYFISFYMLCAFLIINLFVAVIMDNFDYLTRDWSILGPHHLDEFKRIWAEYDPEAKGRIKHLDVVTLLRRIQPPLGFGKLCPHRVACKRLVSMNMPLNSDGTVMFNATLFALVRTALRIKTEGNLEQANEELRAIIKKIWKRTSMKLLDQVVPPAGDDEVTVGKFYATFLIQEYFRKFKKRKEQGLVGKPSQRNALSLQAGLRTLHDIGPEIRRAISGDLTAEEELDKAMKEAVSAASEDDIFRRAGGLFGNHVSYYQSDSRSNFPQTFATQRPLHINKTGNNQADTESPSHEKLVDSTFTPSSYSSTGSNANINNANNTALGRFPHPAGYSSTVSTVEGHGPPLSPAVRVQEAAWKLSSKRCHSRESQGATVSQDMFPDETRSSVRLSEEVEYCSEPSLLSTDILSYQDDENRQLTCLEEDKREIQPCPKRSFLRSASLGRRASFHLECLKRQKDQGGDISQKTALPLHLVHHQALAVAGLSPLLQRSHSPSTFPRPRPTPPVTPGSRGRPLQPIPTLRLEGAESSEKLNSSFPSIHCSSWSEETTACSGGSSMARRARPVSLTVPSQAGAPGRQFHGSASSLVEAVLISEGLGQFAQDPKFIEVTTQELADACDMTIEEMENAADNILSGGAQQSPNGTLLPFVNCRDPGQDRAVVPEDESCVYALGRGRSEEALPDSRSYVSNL

[17] = target: T3, Estrogen receptor, ER1 (h) (Homo sapiens, UniProt P03372); assay: IPP ER1 coactivator recruitment (agonist); assay type: biochemical; details: 10 uM, estriol
T3 construct: purchased Eurofins Cerep (SafetyScreen44-based IPP panel)
T3 sequence (P03372 1-595): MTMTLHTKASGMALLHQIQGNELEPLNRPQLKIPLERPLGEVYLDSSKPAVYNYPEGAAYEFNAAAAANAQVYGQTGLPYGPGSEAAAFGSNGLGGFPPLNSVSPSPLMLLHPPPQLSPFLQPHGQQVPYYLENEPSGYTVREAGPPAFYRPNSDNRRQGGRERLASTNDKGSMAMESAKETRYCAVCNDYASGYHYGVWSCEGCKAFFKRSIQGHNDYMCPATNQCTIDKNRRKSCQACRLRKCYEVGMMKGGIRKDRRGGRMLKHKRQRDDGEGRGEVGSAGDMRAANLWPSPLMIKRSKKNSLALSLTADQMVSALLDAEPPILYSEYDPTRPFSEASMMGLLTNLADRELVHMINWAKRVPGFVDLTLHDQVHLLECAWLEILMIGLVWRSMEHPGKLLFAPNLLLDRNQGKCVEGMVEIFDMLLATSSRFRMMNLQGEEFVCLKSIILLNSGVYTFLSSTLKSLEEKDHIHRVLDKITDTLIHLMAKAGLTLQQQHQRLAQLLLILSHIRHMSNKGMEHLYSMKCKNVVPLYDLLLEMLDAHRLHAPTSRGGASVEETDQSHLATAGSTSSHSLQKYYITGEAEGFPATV

[18] = target: T3, Estrogen receptor, ER1 (h); assay: IPP ER1 coactivator recruitment (antagonist); assay type: biochemical; details: 10 uM, estriol
HepG2 cells [19] = assay: High-throughput transcriptomics (HTTr, TempO-Seq), HepG2, 24 h; assay type: cell-based, human; details: HepG2
Procedure: as §1

[20] = tested on: 63 targets with known safety liabilities; assay: In vitro pharmacological profiling (IPP) panel, screening at 10 or 100 µM and dose response, minimum IC50/AC50; assay type: biochemical; details: lowest AC50 across IPP panel (systemic targets); cell_type -; read-out: ipp_lowest_ac50_systemic PoD
HepaRG cells = assay: High-throughput transcriptomics (HTTr, TempO-Seq), HepaRG, 24 h; assay type: cell-based, human; details: HepaRG
Procedure: as §1

Which results are given for `CCCCOC(=O)c1ccc(O)cc1` [Butylparaben, Butyl 4-hydroxybenzoate]?
pod_cell_stress PoD (HepG2 cells [1]): 4.378 µM; IPP screening %, Specific binding (Tubulin (r)): 8.0%; Risk Classification ([2]; Dermal […] in Body Lotion): Low risk; risk ([2]; Dermal, […] (regulation says limit is […] as acid), Body lotion, Exp1): 0; Specific binding [3]: 1.5%; BMDL5 ([4]; ref SCCS): 24 mg/kg/day; Real NOAEL ([4]; ref not given): 1000 mg/kg/day; alternative lowest PoD ([4]; studies stated to be flawed, ref Oishi): 14.4 mg/kg/day; IPP screening %, Coactivator recruitment [5]: 2.0%; PoD (LOAEL) (rat; subchronic - 8 weeks, ref Oishi): 10 mg/kg bw/day; Fup [6]: 5.64%; IPP screening %, Specific binding [7]: -13.5%; Specific binding [8]: 5.4%; Specific binding [9]: 23.9%; Specific binding [10]: -5.2%; Intrinsic Liver Clearance [11]: 799.2 L/h; IPP screening %, Coactivator recruitment [12]: 3.1%; IPP screening %, Coactivator recruitment [13]: 6.9%; Specific binding [14]: 12.4%

With `O=[N+]([O-])c1cc(C(F)(F)F)c(Cl)c([N+](=O)[O-])c1Nc1ncc(C(F)(F)F)cc1Cl` [Fluazinam, 3-Chloro-N-[3-chloro-2,6-dinitro-4-(trifluoromethyl)phenyl]-5-(trifluoromethyl)pyridin-2-amine] as the compound, how does the “pod_httr_bifrost PoD” value (MCF7 cells; HTTr BIFROST PoD) read?
The value was 0.1303 µM.

And the “podl_path_minbmd PoD” value (MCF7 cells; HTTr minimum pathway BMD(L))?
Its value is 0.4999 µM.

And the “Bioactivity Observations: cell stress panel” value (HepG2 cells [1])?
The value was “The seahorse assays within the cell stress panel do report activity and with a very large magnitude of change in the OCR biomarker”.

What about the “pod_cell_stress PoD” value (HepG2 cells [1]) of the same compound?
Its value is 0.6023 µM.

What about the “IPP screening %, Specific binding” value (Tubulin (r)) of the same compound?
Its value is 9.0%.

What about the “Aqueous Solubility” value [15] of the same compound?
Its value is 950 ng/mL.

And the Specific binding [16]?
Its Specific binding is 99.9%.

And the “Risk Classification” value ([2]; Oral 0.01 mg/kg bw/day)?
The value was “Low risk”.

What about the “Risk Classification” value ([2]; Oral 32% of 0.01 mg/kg bw/day) of the same compound?
The value was “Low risk”.

What about the risk ([2]; Oral, 32% ADI 0.01 mg/kg bw/day, Food residue, Exp1) of the same compound?
The risk was 0.

And the risk ([2]; Oral, ADI 0.01 mg/kg bw/day, Food residue, Exp2)?
Its risk is 0.

What about the Specific binding [3] of the same compound?
The Specific binding was -3.7%.

What about the “IPP screening %, Coactivator recruitment” value [17] of the same compound?
The value was -4.0%.

And the “IPP screening %, Coactivator recruitment” value [18]?
The value was 46.0%.

And the “IPP screening %, Coactivator recruitment” value [5]?
The value was 2.0%.

What about the “pod_httr_bifrost PoD” value (HepG2 cells [19]; HTTr BIFROST PoD) of the same compound?
The value was 0.03634 µM.

And the “podl_path_minbmd PoD” value (HepG2 cells [19]; HTTr minimum pathway BMD(L))?
Its value is 0.699 µM.

And the “PoD (NOAEL)” value (rat; 104 weeks, ref ToxRefDB/Paul-Friedman et al. (2020)/regulatory opinions)?
The value was 0.38 mg/kg bw/day.

What about the AC50 [20] of the same compound?
Its AC50 is 430 nM.

And the “IPP screening %, Specific binding” value [7]?
The value was 16.2%.

What about the Specific binding [8] of the same compound?
Its Specific binding is 14.9%.

What about the “pod_httr_bifrost PoD” value (HepaRG cells; HTTr BIFROST PoD) of the same compound?
Its value is 0.0222 µM.

And the “podl_path_minbmd PoD” value (HepaRG cells; HTTr minimum pathway BMD(L))?
The value was 0.4338 µM.

And the Specific binding [9]?
The Specific binding was 19.6%.

And the Specific binding [10]?
The Specific binding was 1.2%.

And the “IPP screening %, Coactivator recruitment” value [12]?
Its value is -8.8%.

And the “IPP screening %, Coactivator recruitment” value [13]?
Its value is 111.2%.

And the Specific binding [14]?
Its Specific binding is -31.4%.
